Patent publication US9505798B2, “Steroid compounds as RORyt modulators and uses thereof” (New York University, priority 2010, dated 2016)
Where two headings read alike, the source gives them in different places.

What was measured:
mouse RORγt = target: T1, mouse RORγt (Mus musculus, UniProt P51450); experiment: Drosophila S2 cell RORγt luciferase reporter; type: cell-based; conditions: for effect on RORγ transcriptional activity: S2 reporter system
T1 construct: mouse RORγt (amino acids 79 to the carboxyl terminal end); expressed in transfected cells
T1 sequence (P51450 79-495 isoform P51450-2): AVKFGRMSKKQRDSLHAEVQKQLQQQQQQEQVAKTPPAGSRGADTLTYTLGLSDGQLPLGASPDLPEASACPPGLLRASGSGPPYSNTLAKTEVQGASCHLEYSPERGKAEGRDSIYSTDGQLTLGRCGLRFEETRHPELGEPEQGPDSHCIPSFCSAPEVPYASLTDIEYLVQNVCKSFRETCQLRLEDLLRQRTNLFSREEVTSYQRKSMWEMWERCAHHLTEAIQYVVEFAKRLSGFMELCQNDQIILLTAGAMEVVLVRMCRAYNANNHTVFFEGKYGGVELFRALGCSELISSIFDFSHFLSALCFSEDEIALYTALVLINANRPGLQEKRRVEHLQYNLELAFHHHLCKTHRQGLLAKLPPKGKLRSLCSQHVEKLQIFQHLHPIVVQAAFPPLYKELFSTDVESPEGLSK
From the text: The Drosophila S2 cell line was originally purchased from Invitrogen and was maintained in Schneider's medium supplemented with 10% heat-inactivated bovine fetal calf serum and antibiotics (Invitrogen). […] The resulting chimeric gene was subcloned into the copper inducible pMT/V5-His A vector (Invitrogen). […] Coding sequences for firefly luciferase (Promega) were PCR amplified and subcloned into pUAST vector containing Gal4 binding enhancer sequences. Renilla luciferase construct under the polIII promoter was obtained from Dr. Dasgupta's laboratory (NYU medical center). In order to generate stable cell lines, cells were co-transfected with pMT-G4 DBD-RORγt, pMT-G4 DBD-RORα, pMT-G4 DBD-DHR3, or pMT-G4 DBDVP16 and pHygro plasmids (Invitrogen) and screened for resistant colonies in the presence of hygromycin (0.3 mg/mL). […] Using similar methods, stable clones with genomic integration of the luciferase reporters and other reporters were generated such as pMT-RORα_luc, pMT-DHR3_Luc, or pMT-VP16_luc.
(§1) The following representative compounds are tested for their RORγt inhibitory activity and toxicity.
Promega Dual-Glo system is widely used for HTS as the luciferase substrates. Cell culture medium was reduced to the final volume of 10 μl or less and 10 μl of Dual-glo and 10 μl of Stop-glo luciferase substrates were added in a sequencial manner (Promega). Firefly and Renilla luciferase activity was determined by measuring luminescence signals using an automated 384-well plate reader equipped with multiple stack units (such as the Analyst GT or Envision plate readers).
10,000 Drosophila stable S2 cells with genomic integration of the Cu2+-inducible G4 DBD-mouse RORγ construct were transfected with 5 ng of pUASTfirefly luciferase and 7 ng of Pol III-Renilla luciferase and dispensed into white bottom-tissue culture 384-well plates (Corning). […] The following morning, Stop-glo luciferase substrates (Promega) were used to measure luciferase activity.
The Drosophila S2 cell line was originally purchased from Invitrogen and was maintained in Schneider's Drosophila medium supplemented with 10% heat-inactivated bovine fetal calf serum and 1× antibiotic-antimycotic solution (Invitrogen). […] The resulting chimeric gene was subcloned into the copper inducible pMT/V5-His A vector (Invitrogen) and into the constitutive pAc vector. […] Coding sequences for firefly luciferase (Promega) were PCR amplified and subcloned into the pUAST vector containing five Gal4 binding enhancer sequences. The Renilla luciferase construct under a pol III promoter and the pAc vector were obtained from R. Dasgupta (NYU School of Medicine). To generate cell lines stably expressing various chimeric proteins upon copper addition, S2 cells were co-transfected with pMT plasmids encoding individual G4 DBD chimeric constructs and the pCoHygro plasmid (Invitrogen), before screening for resistant colonies in the presence of hygromycin (0.3 mg/mL). […] The human androgen receptor (hAR) expression plasmid pMK33-hAR and its reporter TAT3-Luc were obtained from M. Garabedian (NYU School of Medicine). […] R1881 (10 nM) and Dafachronic acid (10 μM) were used as ligands for hAR and Daf12. Upon treatment of cells with copper, in 384 well plates, there was specific increase in firefly luciferase activity versus normalized Renilla luciferase activity for all cell lines described above, validating the method for high-throughput screen.
Transfections of firefly and Renilla reporter constructs were performed using the Effectene kit from Qiagen according to the manufacturer's protocol with some modifications.

[1] = tested on: human embryonic kidney 293t cell lines; experiment: Toxicity on human embryonic kidney 293T cells; conditions: human embryonic kidney 293t cell lines
Experimental: as §1

RORγt = target: T2, RORγt (Mus musculus, UniProt P51450); type: cell-based; conditions: mouse T cells
T2 construct: expressed in transfected cells; host or cells: mouse naive CD4+ T cells, retroviral MIGr vector
Experimental: Naive CD25^− CD62L^+CD44^low/int cells were sorted from RORγt^fl/fl mice and transduced with control-IRES-GFP (WT) or CRE-IRES-GFP (KO) retrovirus. […] FACS-sorted naive T cells were transduced with retroviral vectors encoding murine RORα-IRES-GFP or RORγt-IRES-GFP on Day 1 (16 h after TCR stimulation) and GFP expressing cells were gated for analysis on Day 5. […] Lymphocytes were isolated on day 21 after disease induction. The cells were stimulated for 4 h with PMA/Ionomycin and stained for surface markers and intracellular cytokines.
T cells were purified from lymph nodes and spleens of six to eight weeks old B6 mice (Taconic), by magnetically depleting B220^+ cells (autoMACS, Miltenyi), and then sorting CD8^−DAPI^−CD19^−CD4^+CD25^−CD62L^+CD44^low/Int naive T cells on a FACSAria (BD). […] For T cell polarization, 200 μl cells were seeded at 0.4×10^5 cells per mL in 96-well plates pre-coated with anti-CD3ε (5 μg/mL) and anti-CD28 (10 μg/mL). Cells were cultured for 4-5 days in Th17 (TGF-β (0.3 ng/mL), IL-6 (20 ng/mL), and anti-IFN-γ and anti-IL-4 (2 ng/mL)), Th1 (IL-12 (10 ng/mL), IL-2 (10 U/mL) and anti-IL-4 (2 ng/mL)), or Th2 (IL-4 (10 ng/mL), and anti-P35 and anti-IFN-γ 2 ng/mL)) conditions. For ectopic expression ROR proteins, native CD4^+ T cells were infected with retroviral MIGr-control, MIGr-RORα or MIGr-RORγ 24 hrs after activation, and cultured without exogenous cytokines or only with IL-6. At day 1, compounds dissolved in DMSO were added. For cytokine analysis, cells were incubated for 5 hours with phorbol 12-myristate 13-acetate (50 ng/mL; Sigma), ionomycin (500 ng/mL; Sigma) and GolgiStop (BD). Intracellular cytokine staining was performed according to the manufacturer's protocol (Cytofix/Cytoperm buffer set from BD) with alexa647-conjugated anti-IL-17a (eBioscience), and PE-conjugated anti-IFN-γ or anti-IL-4 (eBioscience). An LSR II (BD Biosciences) and FlowJo software (Tree Star) were used for flow cytometry and analysis. Dead cells were excluded using the Live/Dead fixable aqua dead cell stain kit (Invitrogen).

[2] = tested on: experimental autoimmune encephalomyelitis (EAE); experiment: Active EAE (MOG35-55/CFA) in C57BL/6 mice; type: in vivo, mouse; conditions: IP daily from day 2

T2 sequence (P51450 other isoform, or with tags, fused parts or gaps): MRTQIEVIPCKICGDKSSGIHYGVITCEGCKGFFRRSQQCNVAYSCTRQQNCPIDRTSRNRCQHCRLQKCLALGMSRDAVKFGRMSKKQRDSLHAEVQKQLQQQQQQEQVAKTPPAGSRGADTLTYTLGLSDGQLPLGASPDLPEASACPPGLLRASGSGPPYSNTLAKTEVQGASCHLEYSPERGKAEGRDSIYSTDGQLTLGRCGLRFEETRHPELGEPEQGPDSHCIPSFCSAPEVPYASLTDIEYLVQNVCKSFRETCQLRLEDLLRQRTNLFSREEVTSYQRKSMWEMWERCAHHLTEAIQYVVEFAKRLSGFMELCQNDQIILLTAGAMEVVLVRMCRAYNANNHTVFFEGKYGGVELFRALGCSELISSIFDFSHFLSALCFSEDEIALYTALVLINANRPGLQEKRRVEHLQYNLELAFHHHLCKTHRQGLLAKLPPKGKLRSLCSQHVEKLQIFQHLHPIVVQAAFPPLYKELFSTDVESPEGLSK

Compound: CC1O[C@@H](OC2C(C)O[C@H](OC3C(C)O[C@@H](O[C@H]4CC[C@@]5(C)[C@H](CC[C@@H]6[C@@H]5C[C@@H](O)[C@]5(C)[C@@H](C7=CC(=O)OC7Cc7ccccc7O)CC[C@]65O)C4)C[C@H]3O)C[C@H]2O)C[C@@H](O)C1O (stereo partly shown) [Compound 18, Digoxin-21-salicylyl]
- IC50 (mouse RORγt): < 1 µM
- Human cell toxicity [1]: xxx (cytotoxicity between 1-10 μM)

Compound: CC1O[C@@H](OC2C(C)O[C@H](OC3C(C)O[C@@H](O[C@H]4CC[C@@]5(C)[C@H](CC[C@@H]6[C@@H]5C[C@@H](O)[C@]5(C)[C@@H](C7CC(=O)OC7Cc7ccccc7O)CC[C@]65O)C4)C[C@H]3O)C[C@H]2O)C[C@@H](O)C1O (stereo partly shown) [Compound 19]
- IC50 (mouse RORγt): 1 to 10 µM
- Human cell toxicity [1]: xxx (cytotoxicity between 1-10 μM)

Compound: CC1O[C@@H](OC2C(C)O[C@H](OC3C(C)O[C@@H](O[C@H]4CC[C@@]5(C)[C@H](CC[C@@H]6[C@@H]5C[C@@H](O)[C@]5(C)[C@@H](C7CC(O)OC7Cc7ccccc7O)CC[C@]65O)C4)C[C@H]3O)C[C@H]2O)C[C@@H](O)C1O (stereo partly shown) [Compound 20]
- IC50 (mouse RORγt): > 20 µM

Compound: CC(=O)OC1C(C)O[C@@H](OC2C(C)O[C@H](OC3C(C)O[C@@H](O[C@H]4CC[C@@]5(C)[C@H](CC[C@@H]6[C@@H]5C[C@@H](OC(C)=O)[C@]5(C)[C@@H](C7=CC(=O)OC7)CC[C@]65O)C4)C[C@H]3OC(C)=O)C[C@H]2OC(C)=O)C[C@H]1OC(C)=O (stereo partly shown) [Compound 21]
- IC50 (mouse RORγt): > 20 µM

Compound: COC(=O)C1CCC2(O)C3CCC4CC(OC5CC(O)C(OC6CC(O)C(OC7CC(O)C(O)C(C)O7)C(C)O6)C(C)O5)CCC4(C)C3CC(O)C12C (stereo not shown) [Compound 24]
- IC50 (mouse RORγt; S2 cell RORγt reporter, read-out: IC50): 1 to 10 µM

Compound: C[C@H]1O[C@@H](O[C@H]2[C@@H](O)C[C@H](O[C@H]3[C@@H](O)C[C@H](O[C@H]4CC[C@@]5(C)[C@H](CC[C@@H]6[C@@H]5CC[C@]5(C)[C@@H](C7=CC(=O)OC7)CC[C@]65O)C4)O[C@@H]3C)O[C@@H]2C)C[C@H](O)[C@@H]1O [Digitoxin]
- effect on RORγ transcriptional activity (mouse RORγt): selectively inhibited RORγ with similar IC50 values
- RORγt-dependent Th17 cell differentiation (RORγt): selectively inhibited

Compound: C[C@H]1O[C@@H](O[C@H]2CC[C@@]3(C)[C@H](CC[C@@H]4[C@@H]3C[C@@H](O)[C@]3(C)[C@@H](C5=CC(=O)OC5)CC[C@]43O)C2)C[C@H](O)[C@@H]1O[C@H]1C[C@H](O)[C@H](O[C@H]2C[C@H](O)[C@H](O[C@@H]3O[C@H](CO)[C@@H](O)[C@H](O)[C@H]3O)[C@@H](C)O2)[C@@H](C)O1 [deslanoside, Deslanoside]
- effect on RORγ transcriptional activity (mouse RORγt): no significant effect

Compound: C[C@]12CC[C@H](O)C[C@H]1CC[C@@H]1[C@@H]2CC[C@]2(C)[C@@H](C3=CC(=O)OC3)CC[C@]12O [digitoxigenin, Digitoxigenin]
- effect on RORγ transcriptional activity (mouse RORγt): no significant effect

Compound: C[C@]12CC[C@H](O)C[C@H]1CC[C@@H]1[C@@H]2C[C@@H](O)[C@]2(C)[C@@H](C3=CC(=O)OC3)CC[C@]12O [digoxigenin, Digoxigenin]
- EAE onset and severity of progression [2]: no effect

Compound: C[C@H]1O[C@@H](O[C@H]2CC[C@]3(C=O)[C@H]4CC[C@]5(C)[C@@H](C6=CC(=O)OC6)CC[C@]5(O)[C@@H]4CC[C@]3(O)C2)C[C@H](O)[C@@H]1O[C@@H]1O[C@H](CO)[C@@H](O)[C@H](O)[C@H]1O [erysimoside, Erysimoside]
- effect on RORγ transcriptional activity (mouse RORγt): no significant effect

Compound: CO[C@H]1C[C@H](O[C@H]2CC[C@@]3(C)[C@H](CC[C@@H]4[C@@H]3CC[C@]3(C)[C@@H](C5=CC(=O)OC5)[C@@H](OC(C)=O)C[C@]43O)C2)O[C@@H](C)[C@@H]1O [oleandrin, Oleandrin]
- effect on RORγ transcriptional activity (mouse RORγt): no significant effect

Compound: C[C@]12C[C@@H](O)[C@H]3[C@@H](CC[C@]4(O)C[C@@H](O)C[C@@H](O)[C@]34CO)[C@@]1(O)CC[C@@H]2C1=CC(=O)OC1 [ouabagenin, Ouabagenin]
- effect on RORγ transcriptional activity (mouse RORγt): no significant effect

Compound: C[C@@H]1O[C@@H](O[C@H]2C[C@@H](O)[C@]3(CO)[C@H]4[C@H](O)C[C@]5(C)[C@@H](C6=CC(=O)OC6)CC[C@]5(O)[C@@H]4CC[C@]3(O)C2)[C@H](O)[C@H](O)[C@H]1O [ouabain, Ouabain octahydrate]
- effect on RORγ transcriptional activity (mouse RORγt): no significant effect

Compound: C[C@@H]1O[C@@H](O[C@@H]2C=C3CC[C@@H]4[C@H](CC[C@]5(C)[C@@H](c6ccc(=O)oc6)CC[C@]45O)[C@@]3(C)CC2)[C@H](O)[C@H](O)[C@H]1O [proscillaridin A, Proscillaridin A]
- effect on RORγ transcriptional activity (mouse RORγt): no significant effect

Compound: β-acetyldigoxin
- effect on RORγ transcriptional activity (mouse RORγt): selectively inhibited RORγ with similar IC50 values
- RORγt-dependent Th17 cell differentiation (RORγt): selectively inhibited
